# Assay results as given in patent US5563142A, “Diaromatic substituted compounds as anti-HIV-1 agents” (The Upjohn Company, priority 1994, dated 1996).
# Structures can show the parent of a compound that is named as a salt.
# What was measured:
# [1] = tested on: HIV-1 (MT-2 cells infected with HIV-1); assay: Inhibition of HIV-induced syncytia formation in MT-2 cells; type: cell-based; conditions: for IC50: Human immunodeficiency virus 1, MT2, MT-2 cells infected with HIV-1, read-out: INHIBITION OF SYNCYTIA FORMATION ED50
# Text: This test is described in Quantitative Infectivity Assay for HIV-1 and -2., Nature 332: 469-470, 1988 as well as in AIDS RESEARCH AND HUMAN RETROVIRUSES, Vol. 4, No. 6, pages 449-455 (1988), Mary Ann Liebent, Inc., Publishers; in an article entitled "Nucleotide Dimers Suppress HIV Expression In VITRO". The results (IC50 means the concentration, in μM of drug, required to inhibit syncytia formation to the extent of 50%) of various assay(s) are combined and reported as % inhibition and IC50 (calculated).
# ability of various compounds used to inhibit HIVinduced syncytia formatio
# in a tissue culture assay using MT2 cells infected with HIV1. This test i
# described by Nara et al., Quantitative infectivity assay for HIV1 and 2,
# Nature 332, 469-470 (1988), as well as in AIDS RESEARCH AND HUMAN
# RETROVIRUSES, vol. 4, No. 6, pages 449-455 (1988), Mary Ann Liebent, Inc.
# Publishers, and in an article by Mariano Busso, et al., entitled
# "Nucleotide Dimers Suppress HIV Expression In Vitro". The results
# (ED50 means the concentration, in μM of drug, required to inhibit
# syncytia formation to the extent of 50%) of various assay are combined an
# reported in Table I. In comparison, the known commercial compound, AZT,
# percent reductions in syncytia formation at concentrations of
# approximately 1 μM and 0.5 μM, respectively.
# [2] = molecular target: T1, viral reverse transcriptase (Human immunodeficiency virus type 1 group M subtype B, UniProt P04585); assay: Viral reverse transcriptase inhibition, cell free assay; type: biochemical, human immunodeficiency virus (HIV-1); conditions: read-out: RT % INHIBITION (100 μM), 100 μM; poly rC or poly rG template
# T1 construct: Viral reverse transcriptase is found in extracts from bacterial clones; made in house; host or cells: Escherichia coli (extracts of bacterial clones, by the procedure of Larder et al., EMBO J. 6:3133-3137, 1987)
# How it was run: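 E. coli-expressed HIV-1 RT extract was incubated with inhibitor, 10 μM [35S]-dNTP, poly rC/rG template and oligo dG/dT primer in Tris pH 8.3 with Mg2+ at 37 °C (30 min; 15 min in an alternative version). DNA incorporation was counted on filters and reported as % inhibition (at 100 μM in one version) and IC50.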
# [3] = tested on: HIV in primary human peripheral blood lymphocytes; assay: Primary PBL assay: inhibition of viral replication (p24 & RNA); type: cell-based; conditions: Human immunodeficiency virus 1, Lymphocyte, primary human lymphocytes infected with HIV, days three and four, read-out: PBL INHIBITION OF VIRAL REPLICATION (p24 & RNA) ED50
# Protocol: ^3 The utility of the compounds of the invention is further
# infection in primary peripheral blood lymphocytes (primary PBL assay). Th
# primary PBL assay offers the following advantages:
# (a) The assays are performed with primary human lymphocytes. Thereby,
# undesired testing of transformed cell lines is avoided in which host cell
# and virus may have undergone processes of mutual adaptation. Performance
# of cell culture in serum containing media closely mimics the in vivo
# situation. (b) The primary PBL assay distinguishes between true antiviral
# effect which is due to the drug and cytostatic/cytotoxic reactions. (c)
# Viral replication is precisely followed by kinetic measurement of viral
# nucleic acids and proteins. (d) Nucleic acids (total HIVRNA intra and
# extracellular) and protein (secreted p24) are measured in parallel which
# permits one to differentiate between the compound's effect on virus
# replication and on the expression of viral proteins. This leads to
# additional information regarding the efficacy of the test compound. (e)
# Tolerance of the cell culture against low amounts of organic solvents als
# permits the investigation of hydrophobic substances. (f) The dose of the
# drug causing half maximal suppression of virus replication is determined.
# (g) The screening system is standardized and automated to a high degree.
# The primary PBL assay uses the following procedure:
# Effects of the compounds of the invention on cell proliferation are determined by lymphocyte proliferation assays. Starting with a 100 micromolar solution, the compound is serially diluted 10 fold. One tenth of the concentration of a compound causing half maximal inhibition of cellular proliferation is employed for all subsequent testing.
# Peripheral human lymphocytes are isolated by density gradient centrifugation. After stimulation by mitogen the cells are infected with a standardized preparation of HIV. Subsequently, the infected cells are cultured in the presence of the drug for four days. Individual cultures are established to measure viral replication three and four days following infection. Untreated cells and AZT-treated cells are included as controls in parallel with the drugs under investigation.
# The amount of viral core protein p24 synthesized and release by the infected cells is determined in the supernatant by the capture-ELISA technique on days three and four. By comparing with a standard preparation, the amount of protein produced by the virus infected cells is quantified.
# The total amount of viral RNA synthesized by the infected lymphocytes is determined by a special nucleic acid hybridization on days three and four of culture. By including a standard preparation of HIV-RNA the amount of synthesized RNA is quantified.
# In addition, viability of HIV-infected cells is determined in parallel with assays for viral p24 and RNA. In order to evaluate the half maximal antiviral effect of the drug, a concentration dependency of the drug action is measured.
# Numerous examples of the compounds of the invention are assayed according to this procedure. The anti-HIV activity, as measured by the inhibition of the release of core p24 protein in HIV infected human lymphocytes, is used to calculate ED50 -antiviral (the concentration required to give a 50% reduction in p24 synthesis).
SMILES,"EC50 ([1]; Human immunodeficiency virus 1, MT2, read-out: concentration giving 50 percent reduction in syncytia formation) [nM]","IC100 ([1]; Human immunodeficiency virus 1, MT2, read-out: concentration giving 100 percent reduction in syncytia formation) [µM]",inhibition at 100 µM [2] [%],IC50 [1] [nM],EC50 [3] [nM]
"Cc1cn([C@H]2C[C@H](N=[N+]=[N-])[C@@H](CO)O2)c(=O)[nH]c1=O [AZT, 3'-azido-3'-deoxy-thymidine, reference compound]",~500,~1,–,–,–
"CCNc1cccnc1N1CCN(C(=O)c2cc(C)c(OC)c(C)c2)CC1 [Example 1, 1-[4-Methoxy-3,5-dimethylbenzoyl]-4-[3-(ethylamino)-2-pyridinyl]piperazine]",–,–,60 to 79,10000,1000
"CCNc1cccnc1N1CCN(Cc2cc(C)c(OC)c(C)c2)CC1 [Example 3, 1-[4-Methoxy-3,5-dimethylbenzyl]-4-[3-(ethylamino)-2-pyridinyl]piperazine]",–,–,70 to 76,1000 to 2500,1000
"CCNc1cccnc1N1CCN(Cc2cc(C)c(O)c(C)c2)CC1 [Example 4, 1-[4-Hydroxy-3,5-dimethylbenzyl]-4-[3-(ethylamino)-2-pyridinyl]piperazine]",–,–,58,2500,≥ 10000
"CCCNc1cccnc1N1CCN(Cc2cc(C)c(OC)c(C)c2)CC1 [Example 5, 1-[4-Methoxy-3,5-dimethylbenzyl]-4-[3-(propylamino)-2-pyridinyl]-piperazine]",–,–,39 to 42,2000,–
"CCOc1ccccc1N1CCN(C(=O)c2cc3ccccc3[nH]2)CC1 [Example 10, 1-[Indolyl-2-carbonyl]-4-[2-ethoxyphenyl]piperazine]",–,–,72 to 87,5000,> 1000
"CCNc1cccnc1N1CCN(C(=O)c2cc3ccccc3[nH]2)CC1 [Example 11, 1-[Indolyl-2-carbonyl]-4-[3-(ethylamino)-2-pyridinyl]piperazine]",–,–,95 to 98,300 to 3000,10 to 100
"CCOc1ccccc1N1CCN(C(=O)c2cc3cc(OC)ccc3[nH]2)CC1 [Example 12, 1-[5-Methoxyindolyl-2-carbonyl]-4-[2-ethoxyphenyl]piperazine]",–,–,64 to 80,< 300,5000 to 10000
"CCNc1cccnc1N1CCN(C(=O)c2cc3cc(OC)ccc3[nH]2)CC1 [Example 16A, 1-[5-Methoxyindolyl-2-carbonyl]-4-[3-(ethylamino)-2-pyridinyl]-piperazine, hydrochloride]",–,–,–,< 200,1
"CC(C)Nc1cccnc1N1CCN(C(=O)c2cc3ccccc3[nH]2)CC1 [Example 17, 1-[Indolyl-2-carbonyl]-4-[3-(1-methylethylamino)-2-pyridinyl]piperazine]",–,–,96,≤ 300,≤ 10
"CCN(CC)c1cccnc1N1CCN(C(=O)c2cc3ccccc3[nH]2)CC1 [Example 19, 1-[Indolyl-2-carbonyl]-4-[3-(N,N-diethylamino)-2-pyridinyl]-piperazine]",–,–,65 to 71,3000,100 to 1000
"CCNc1cccnc1N1CCN(Cc2cc3ccccc3[nH]2)CC1 [Example 20, 1-[Indolyl-2-methyl]-4-[3-(ethylamino)-2-pyridinyl]piperazine]",–,–,64,10000,1000
"CCCNc1cccnc1N1CCN(C(=O)c2cc3cc(F)ccc3[nH]2)CC1 [Example 21, 1-[5-Fluoroindolyl-2-carbonyl]-4-[3-(propylamino)-2-pyridinyl]piperazine]",–,–,44 to 74,1000,10 to 1000
"CCNc1cccnc1N1CCN(C(=O)c2cc3cc(Cl)ccc3[nH]2)CC1 [Example 22, 1-[5-Chloroindolyl-2-carbonyl]-4-[3-(ethylamino)-2-pyridinyl]piprazine]",–,–,76 to 82,300 to 5000,10
"CCNc1cccnc1N1CCN(C(=O)c2cc3cc(F)ccc3[nH]2)CC1 [Example 23, 1-[5-Fluoroindolyl-2-carbonyl]4-[3-(ethylamino)-2-pyridinyl]-piperazine]",–,–,92 to 95,< 300,3 to 10
"CCNc1cccnc1N1CCN(C(=O)c2cc3cc(CC)ccc3[nH]2)CC1 [Example 24, 1-[5-Ethylindolyl-2-carbonyl]-4-[3-(ethylamino)-2-pyridinyl]piperazine]",–,–,65 to 70,16000,10 to 100
"CC(C)Nc1cccnc1N1CCN(C(=O)c2cc3cc(F)ccc3[nH]2)CC1 [Example 25, 1-[5-Fluoroindolyl-2-carbonyl]-4-[3-(1-methylethylamino)-2-pyridinyl]piperazine]",–,–,96,300 to 400,3
"COc1ccc2[nH]c(C(=O)N3CCN(c4ncccc4NC(C)C)CC3)cc2c1 [Example 26, 1-[5-Methoxyindolyl-2-carbonyl]-4-[3-(1-methylethylamino)-2-pyridinyl]piperazine]",–,–,97,300 to 500,3
"CCNc1cccnc1N1CCN(C(=O)c2cc3ccccc3o2)CC1 [Example 27, 1[Benzofuroyl-2-carbonyl]-4-[3-(ethylamino) -2-pyridinyl]piperazine]",–,–,37 to 57,> 1,10000
"CCNc1ccccc1N1CCN(C(=O)c2cc3cc(OC)ccc3[nH]2)CC1 [Example 28, 1-[5-Methoxyindolyl-2-carbonyl]-4-[2-(ethylamino)phenyl]piperazine]",–,–,70,> 26000,100 to 1000
"CCNc1ccccc1N1CCN(C(=O)c2cc3ccccc3[nH]2)CC1 [Example 29, 1-[Indolyl-2-carbonyl]-4-[2-(ethylamino)phenyl]piperazine]",–,–,75 to 83,2800,100 to 1000
"O=C(c1cc2ccccc2[nH]1)N1CCN(c2ncccc2NCC2CC2)CC1 [Example 31, 1-[Indolyl-2-carbonyl]-4-[3-(cyclopropylmethylamino)-2-pyridinyl]piperazine]",–,–,65 to 71,3000,100 to 1000
"CC(C)Nc1cccnc1N1CCN(Cc2cc3cc(F)ccc3[nH]2)CC1 [Example 32, 1-[5-Fluoroindolyl-2-methyl]-4-[3-(1-methylethylamino)-2-pyridinyl]piperazine]",–,–,96,< 300,3 to 10
CC(C)Nc1cccnc1N1CCN(C(=O)c2cc3ccc(F)cc3[nH]2)CC1 [Example 132],–,–,95 to 98,–,1 to 10
